Experiment: Compound 1 plasma concentration at trough (LC-MS) in piroxicam-accelerated MDR1a−/− colitis mice
Assay type: in vivo, mouse
Conditions: 90 mg/kg SC BID in 10% Cremophor-EL; trough blood after 3rd and 21st day of dosing; FIG. 1
Experimental: Compound 1 was dosed at 90 mg/kg in 10% Cremophor-EL, SC, BID. Vehicle was 10% Cremophor-EL and was administered SC, BID. Anti-mouse TNFα clone XT3.11 (Rat IgG1), 300 μg/mouse, QD/QOD; Isotype-matched control Clone HRPN (Rat IgG1), 300 μg/mouse, QD/QOD.
Blood was taken at trough from all Compound 1-dosed mice, and plasma analyzed by Liquid Chromatography-Mass Spectroscopy to determine Compound 1 concentration. Trough blood was taken after the 3rd day (left panel) and 21st day (right panel) of dosing (FIG. 1).

CC(C)(C)c1ccc(S(=O)(=O)Nc2ccc(Cl)cc2C(=O)c2cc[n+]([O-])cc2)cc1 [Compound 1]
Compound 1 plasma concentration at trough: met or exceeded the minimal concentration established for 98% receptor coverage

Reference: patent US10792360B1, “Compositions and methods for treating inflammatory bowel disease using CCR9 inhibitor and anti-TNF-alpha blocking antibodies” (ChemoCentryx, Inc., priority 2019, dated 2020)
